Results reported in patent publication US10251835B2, “Cranial delivery of pharmaceuticals” (GLIA, LLC, priority 2013, dated 2019).
“Also recorded” adds a separate entry of the source.

Legend:
[1] = test system: dogs with mucus discharge from the eyes; assay: Treatment of dry eye in domestic animals; type: in vivo, dog; settings: bulldog; tacrolimus directly in the eye
Text: A puggle presented with mucus discharge from the eyes. […] The owner reported that the dog has this problem spring and fall, which indicates it is allergic seasonal rhinitis. The reported use took place in the fall.
A bulldog diagnosed with Sjogren's syndrome had mucus discharge from the eyes.

[2] = test system: subject with left-side trigeminal neuralgia and facial droop; assay: Treatment of trigeminal neuralgia and facial palsy; type: in vivo, human; settings: progesterone 1% (1 mg) four times daily to forehead followed by 0.15 g ganciclovir (0.15% formulation) up to five times daily
Procedure: A subject presented with left-side trigeminal neuralgia and left side facial droop of 10 years duration. Therapy was initiated by topically applying progesterone (1% by weight) equivalent to 1 mg four times daily to the patient's forehead. This was followed by application of 0.15 g ganciclovir (as a 0.15% by weight formulation) up to five times daily.

[3] = test system: patient with corneal Herpes zoster; assay: Treatment of herpetic keratitis; type: in vivo, human; settings: for intraocular pressure: ganciclovir gel plus progesterone to forehead
Text: A person suffered a first onset of active corneal Herpes zoster. They presented with classic Herpes Zoster symptoms including, left hemisphere unilateral skin lesions on forehead, bridge of nose area and down the nose not including the tip; left cornea dendrites, keratitis and edema; loss of functional vision, elevated intraocular pressure as high as 42 mm Hg, conjunctival irritation and redness and anesthetic cornea. There were also general body flu symptoms.
The patient was initially treated with ophthalmic prednisolone acetate 1% up to 5 times daily, ophthalmic antibiotics, non-prescription ophthalmic wetting agents, and lubrication with gels administered to the eye. Additional drug therapies included systemic oral valcyclovir as high as 2 g per day and medications to reduce intraocular pressure.
Despite the therapy, symptom flare-up was as frequent as 2 weeks to 1 month over the past 10 years. Although intraocular pressure returned to within the normal range, cataracts formed as a result of long term use of corticosteroids.
The cornea surface contour became increasingly distorted with prominent ridges. There was incursion of capillaries across the conjunctiva into the cornea, both superficially and deep. Deposition of phospholipids through a leaching process occluded the cornea with grey color deposits on about 50% of its surface.
Corneal thinning had progressed to near perforation levels which required preparation for corneal patch surgery.
At this point, 1% topical progesterone (approximately 1 mg of progesterone) was first administered as a method to keep the cornea from perforating and the tear film intact. The drug was applied to the forehead 4 times daily together with topical antibiotics and corticosteroids.
After stabilizing the cornea, antiviral treatment was begun with ganciclovir gel (0.15%; 0.15 mg of drug) applied five times daily to the forehead together with once daily progesterone (1%; 1 mg of drug) and a nightly drop of ophthalmic antibiotic. Intraocular pressure measured at the onset of ganciclovir treatment was 18 mm Hg.
The patient reported a decrease in eye strain as a result of an improvement in tear film. […] Over the next two weeks, inflammation was further reduced and visual acuity increased somewhat when the head was tilted back. During the first full month of treatment, the affected eye generally felt comfortable. There was a lack of inflammation, and some vision returned to the threshold of functionality. Intraocular pressure remained normal in the range of 16 mm Hg.
There was modest improvement in reading the eye chart, and corneal staining due to defects was minimized. Intraocular pressure remained normal in both eyes at about 16 mm Hg during this period. The phospholipid deposits further reduced in density and began to give the appearance of lesser areas of concentrations. Nearly functional vision could be achieved by positioning the head back and viewing through the central cornea. The residual clear area of the cornea became more so and less inflamed. Through the end of the second month, improvement to the cornea accelerated. The pupil was now clearly visible and more light was entering the eye.
The patient was examined regularly by an ophthalmologist, and after three and one half months of treatment. The intraocular pressure was normal at 12 mm Hg. […] Intraocular pressure has remained in the same range for more than one year.

[4] = test system: patient unable to swallow with loss of appetite; assay: Treatment of drug-induced anorexia and oropharyngeal dysphagia, dronabinol applied to forehead; type: in vivo, human
Procedure: A patient had been on dexamethasone therapy for 20 months following surgery, radiation, and chemotherapy. After tapering the dose of dexamethasone from 16 mg per day to 1.5 mg per day, the patient was unable to swallow and reported a loss of appetite. Dronabinol was administered to the patient's forehead once per day at 2.5 mg per dose. Improvement in swallowing and appetite were noted within 24 hours of the first administration.
After three weeks of continued dronabinol therapy, application was again stopped for 24 hours, resulting in the same loss of appetite and difficulty swallowing.
The effect of oral administration of dronabinol was tested after another two weeks as an alternative to the topical route of administration described above. […] Typical meals include steak, meatball sandwich and fruit drinks.
The patient had also ceased dexamethasone dosing very early on.

[5] = test system: patient with cognitive impairment due to surgery; assay: Treatment of surgically induced cognitive deficits, cranially delivered dronabinol; type: in vivo, human
Text: The patient described in Example 1 suffered from a co-morbid condition of cognitive impairment due to surgery to remove a frontal lobe glioblastoma multiforma. The cognitive impairment continued for two years following the surgery at which time treatment with cranially delivered dronabinol was begun.

[6] = test system: person with late stage Alzheimer disease; assay: Treatment of symptoms associated with Alzheimer's disease; type: in vivo, human; settings: approximately 2 mg dronabinol to forehead, then daily dosing
Procedure: A person diagnosed with late stage Alzheimer disease five years ago suffers from episodes of extreme agitation, aggressive behavior, and nocturnal restlessness and disorientation that is difficult for their caregiver to manage. Approximately 2 mg dronabinol was delivered cranially to their forehead.

[7] = test system: person with CYMBALTA induced loss of appetite; settings: 2 mg dronabinol to forehead daily with oral CYMBALTA; 2 week course
Procedure: The subject topically applied 2 mg of dronabinol to their forehead daily together with the oral CYMBALTA™.

person = assay: Rapid anti-anxiety treatment; type: in vivo, human; settings: 1 mg midazolam to forehead
Procedure: A person applied 1 mg of midazolam to their forehead on three separate occasions. […] These effects lasted for 4 to 6 hours after application of the drug.

SMILES: C=CC[C@@H]1/C=C(\C)C[C@H](C)C[C@H](OC)[C@H]2O[C@@](O)(C(=O)C(=O)N3CCCC[C@H]3C(=O)O[C@H](/C(C)=C/[C@@H]3CC[C@@H](O)[C@H](OC)C3)[C@H](C)[C@@H](O)CC1=O)[C@H](C)C[C@@H]2OC [tacrolimus]
- mucus discharge from the eyes [1]: without completely stopping the discharge

SMILES: Nc1nc(O)c2ncn(COC(CO)CO)c2n1 [ganciclovir]
- facial muscles contracted for 10 years [2]: relaxation of facial muscles
- inflammation, visual acuity and state of affected eye ([3]; ganciclovir gel 0.15% (0.15 mg) five times daily plus progesterone 1% (1 mg) once daily to forehead, nightly ophthalmic antibiotic, 1 week to 3.5 months): less inflammation and a slight improvement in visual acuity; also recorded: some functional vision was attained; also recorded: stable and normalizing
- intraocular pressure ([3]; after three and one half months): 12 mm Hg
- intraocular pressure ([3]; both eyes, examination period up to third month): about 16 mm Hg
- intraocular pressure ([3]; first full month of treatment): ~16 mm Hg

SMILES: CCCCCc1cc(O)c2c(c1)OC(C)(C)[C@@H]1CCC(C)=C[C@@H]21 (relative stereo) [dronabinol, (6aR-trans)-6a,7,8,10a-tetrahydro-6,6,9-trimethyl-3-pentyl-6H-dibenzo[b,d]pyran-1-ol]
- appetite and swallowing after missing dronabinol therapy ([4]; after missing one day of dronabinol therapy): decrease in appetite and difficulty swallowing liquids
- dose requirement on continued treatment ([4]; after one year of cranial dosing with challenge stops and restarts): No increase in dose has been required; also recorded: daily dosing is necessary for continued effectiveness
- appetite and swallowing (patient report) ([4]; dronabinol 2.5 mg applied to forehead, four weeks, restarts and single rescue doses): healthy appetite and no problems swallowing; also recorded: normal appetite and swallowing after one day; also recorded: complete reversal of symptoms within about two hours; also recorded: rescued again by single dose applied cranially
- time to improvement in swallowing and appetite ([4]; dronabinol 2.5 mg per dose to forehead once per day, after first administration): ≤ 24 h
- swallowing and chewing under oral administration ([4]; oral 2.5 mg dronabinol instead of topical, within one day): difficulty swallowing and chewing
- scar tissue around the area of surgery as detected by imaging [5]: noticeable decrease in scar tissue
- cognitive function (noted by physicians) ([5]; begun two years after surgery): dramatic improvement in cognitive function
- agitation, aggressive behavior, nocturnal restlessness symptoms [6]: improvement in their symptoms was observable within two hours; also recorded: less frequent nocturnal disturbances; also recorded: additional significantly noticeable improvement in their symptoms
- prevention of CYMBALTA induced loss of appetite [7]: prevented the CYMBALTA™ induced loss of appetite

SMILES: Cc1ncc2n1-c1ccc(Cl)cc1C(c1ccccc1F)=NC2 [midazolam]
- duration of effects (person): 4 to 6 h
- effect produced (person): mild sedation and anti-anxiety
- time to response (person; three separate occasions): ≤ 5 min
